Measurements: patent US7750148B2, “Intermediate compound for the production of β-lactamase-resistant cephalosporin ester compounds and salts thereof” (Zhejiang Yongning Pharmaceutical Factory, priority 2003, dated 2010)
Read-outs that look alike come from different tables or passages of the source.

Experiments:
Proteus morganii 49086 = assay: In vitro antibacterial activity (MIC, agar double dilution); format: cell-based
Source text: (§1) tested samples YR-1, YR-2 were the ones prepared in example 1 and example 5 respectively, control samples were cefetamet sodium (CTM), cefuroxime sodium (CRX), cefetamet sodium+sulbactam sodium (CTM+SBT) (molar ratio 1:1), cefuroxime+sulbactam sodium (CRX+SBT) (molar ratio 1:1). All control samples (have been sold on the market) were supplied by Zhejiang Yongning pharmaceutical factory.
(§2) Staphylococcus aureus 26003, Diplococcus lanceolatus 31002, E. coli 44102, Shigella sonnet 51081, Shigella bogdii 51313, Shigella flexneri 51573, Proteus mirabilis 49005, Bacillus proteus 49085, Proteus morganii 49086, Pseudomonas aeruginosa 10124, Bacillus pneumoniae 46101, Salmonella enteritidis 50041, Salmonella typhi 50097, Citrobacter 48017, Candida ciferii 41002 were supplied by Shanghai Hygienic and Antiepidemic Station.
(§3) Mueller-Hinton Agar (M.H) culture medium, batch number 20040528 (Shanghai Reagent Supply Research Center, China Diarrhea Disease Control).
(§4) Adopted agar double dilution, inoculated using multipoint inoculator, inoculated 10^5CFU/ML each point, cultured for 24 hours at 37° C., observed and recorded the results, set the least concentration of the antibacterial drug that can inhibit bacteria growth as the minimum inhibitory concentration (MIC).

[1] = system: Staphylococcus epidermidis 26069; assay: as above; format: cell-based; settings: read-out: MIC of the drug to bacteria
Source text: as §1
(§5) Staphylococcus epidermidis 26069 and Bacillus aerogenes 45102 were supplied by Beijing Drug & Biology Product Appraisal Bureau.
as §3, §4

Bacillus aerogenes 45102 = assay: as above; format: cell-based; settings: Bacillus, 45102, 24 h, read-out: MIC of the drug to bacteria
Source text: as §1, §5, §3, §4

[2] = system: Bacillus proteus 49085, Proteus morganii 49086; assay: Ex vivo antibacterial activity experiment after mouse is administered, conclusions (strains not separated); format: in vivo; settings: mice, intravenous injection 500 mg/kg
Source text: the sources of tested samples (YR-1, YR-2) and control samples (CTM, CRX, CTM+SBT 1:1 and CRX+SBT 1:1) are the same as above. Bacillus proteus 49085, Proteus morganii 49086, inoculated 10^5CFU/ML each dish. Mueller-Hinton Agar (M.H) culture medium, batch number 000707 (Shanghai Reagent Supply Research Center, China Diarrhea Disease Control). Strain: Kunming mice; source: Animal Facility of Shanghai Institute of Pharmaceutical Industry; certificate number: Hudonghezhengzi No. 107; animal numbers: 120; Sex: same number of male and female mice; Body weight: 18-21 g; fast time: 16 hours. Group 1: CTM, CRX, CTM+SBT 1:1, CRX+SBT 1:1 were given at a dosage of 500 mg/kg intravenously, collecting blood at 10 minutes, 30 minutes, 1 hour, 2 hours, 4 hours, 8 hours after administration. Group 2: […] Kunming mice were randomly divided into several groups according to body weight of empty stomach and sex. Collecting blood of three mice at different time point, anticoagulated with heparin, centrifugated and separated plasma, quantitative spotting, semi-quantitated antibacterial activity according to the size of bacterial inhibition ring.

[3] = system: Diplococcus lanceolatus 0031; assay: In vitro antibacterial activity (MIC, agar double dilution); format: cell-based; settings: read-out: MIC of the drug to bacteria
Source text: as §1
Diplococcus lanceolatus 0031 was supplied by Shanghai First People's Hospital.
as §3, §4

[4] = system: Pseudomonas aeruginosa 10124; assay: as above; format: cell-based; settings: read-out: MIC of the drug to bacteria
Source text: as §1, §2, §3, §4

Proteus mirabilis 49005 = assay: as above; format: cell-based; settings: Proteus mirabilis, 49005, 24 h, read-out: MIC of the drug to bacteria
Source text: as §1, §2, §3, §4

Shigella flexneri 51573 = assay: as above; format: cell-based; settings: Shigella flexneri, 51573, 24 h, read-out: MIC of the drug to bacteria
Source text: as §1, §2, §3, §4

[5] = system: Salmonella enteritidis 50041; assay: as above; format: cell-based; settings: Salmonella enterica, read-out: MIC of the drug to bacteria
Source text: as §1, §2, §3, §4

Salmonella typhi 50097 = assay: as above; format: cell-based; settings: Salmonella enterica, 10^5CFU/ML each point, 24 hours at 37° C., read-out: MIC of the drug to bacteria
Source text: as §1, §2, §3, §4

[6] = system: Diplococcus lanceolatus 31002; assay: as above; format: cell-based; settings: read-out: MIC of the drug to bacteria
Source text: as §1, §2, §3, §4

Bacillus proteus 49085 = assay: as above; format: cell-based; settings: read-out: MIC of the drug to bacteria
Source text: as §1, §2, §3, §4

Shigella bogdii 51313 = assay: as above; format: cell-based; settings: Shigella, 51313, 24 h, read-out: MIC of the drug to bacteria
Source text: as §1, §2, §3, §4

E. coli 44102 = assay: as above; format: cell-based; settings: read-out: MIC of the drug to bacteria
Source text: as §1, §2, §3, §4

Citrobacter 48017 = assay: as above; format: cell-based; settings: Citrobacter, 48017, 24 h, read-out: MIC of the drug to bacteria
Source text: as §1, §2, §3, §4

Shigella sonnet 51081 = assay: as above; format: cell-based; settings: Shigella, 51081, 24 h, read-out: MIC of the drug to bacteria
Source text: as §1, §2, §3, §4

Candida ciferii 41002 = assay: as above; format: cell-based; settings: read-out: MIC of the drug to bacteria
Source text: as §1, §2, §3, §4

[7] = system: Bacillus pneumoniae 46101; assay: as above; format: cell-based; settings: read-out: MIC of the drug to bacteria
Source text: as §1, §2, §3, §4

[8] = system: Staphylococcus aureus 26003; assay: as above; format: cell-based; settings: Staphylococcus aureus, 26003, 24 h, read-out: MIC of the drug to bacteria
Source text: as §1, §2, §3, §4

[9] = system: type II, III, IV, V β-lactamase; settings: at a concentration of 2 μg/ml; cited from earlier work

Structure (SMILES): CO/N=C(\C(=O)N[C@@H]1C(=O)N2C(C(=O)O)=C(C)CS[C@H]12)c1csc(N)n1 [CTM, cefetamet sodium, reference compound]
- MIC (Proteus morganii 49086; Morganella morganii, 49086, 24 h, read-out: MIC of the drug to bacteria): > 100 µg/mL
- MIC (Proteus morganii 49086; Morganella morganii, 49086, read-out: MIC (as restated in the conclusions)): > 100000 µg/mL
- MIC ([1]; Staphylococcus epidermidis, 26069, 24 h): 12.5 µg/mL
- MIC (Bacillus aerogenes 45102): 0.195 µg/mL
- antibacterial activities in blood 8 hours after administration [2]: can not be detected
- MIC ([3]; 24 h): 25 µg/mL
- MIC ([4]; Pseudomonas aeruginosa, 10124, 24 h): 100 µg/mL
- MIC (Proteus mirabilis 49005): 0.195 µg/mL
- MIC (Shigella flexneri 51573): 0.78 µg/mL
- MIC ([5]; ENTERITIDIS, 24 h): 0.78 µg/mL
- MIC (Salmonella typhi 50097): 0.78 µg/mL
- MIC ([6]; 24 h): > 100 µg/mL
- MIC (Bacillus proteus 49085; Bacillus, 49085, 24 h): 0.195 µg/mL
- MIC (Shigella bogdii 51313): 0.39 µg/mL
- MIC (E. coli 44102; Escherichia coli, 44102, 24 h): 0.78 µg/mL
- MIC (Citrobacter 48017): 1.56 µg/mL
- MIC (Shigella sonnet 51081): 0.39 µg/mL
- MIC (Candida ciferii 41002; Candida, 41002, 24 h): 0.78 µg/mL
- MIC ([7]; Klebsiella pneumoniae, 46101, 24 h): 0.78 µg/mL
- MIC [8]: 100 µg/mL

Structure (SMILES): CO/N=C(\C(=O)N[C@@H]1C(=O)N2C(C(=O)O)=C(COC(N)=O)CS[C@H]12)c1ccco1 [CRX, cefuroxime sodium, reference compound]
- MIC (Proteus morganii 49086; Morganella morganii, Proteus morganii 49086, 10^5CFU/ML each point, 24 hours at 37° C., read-out: MIC of the drug to bacteria): 100 µg/mL
- MIC ([1]; Staphylococcus epidermidis 26069, 10^5CFU/ML each point, 24 hours at 37° C.): 0.39 µg/mL
- MIC (Bacillus aerogenes 45102): 3.13 µg/mL
- antibacterial activities in blood 8 hours after administration [2]: can not be detected
- MIC ([3]; Diplococcus lanceolatus 0031, 10^5CFU/ML each point, 24 hours at 37° C.): 0.78 µg/mL
- MIC ([4]; Pseudomonas aeruginosa 10124, 10^5CFU/ML each point, 24 hours at 37° C.): 100 µg/mL
- MIC (Proteus mirabilis 49005): 1.56 µg/mL
- MIC (Shigella flexneri 51573): 1.56 µg/mL
- MIC ([5]; Salmonella enteritidis 50041, 10^5CFU/ML each point, 24 hours at 37° C.): 6.25 µg/mL
- MIC (Salmonella typhi 50097): 3.13 µg/mL
- MIC ([6]; Diplococcus lanceolatus 31002, 10^5CFU/ML each point, 24 hours at 37° C.): 25 µg/mL
- MIC (Bacillus proteus 49085; Bacillus proteus 49085, 10^5CFU/ML each point, 24 hours at 37° C.): 0.78 µg/mL
- MIC (Shigella bogdii 51313): 1.56 µg/mL
- MIC (E. coli 44102; Escherichia coli, E. coli 44102, 10^5CFU/ML each point, 24 hours at 37° C.): 6.25 µg/mL
- MIC (Citrobacter 48017): 1.56 µg/mL
- MIC (Shigella sonnet 51081): 0.78 µg/mL
- MIC (Candida ciferii 41002; Candida ciferii 41002, 10^5CFU/ML each point, 24 hours at 37° C.): 25 µg/mL
- MIC ([7]; Klebsiella pneumoniae, Bacillus pneumoniae 46101, 10^5CFU/ML each point, 24 hours at 37° C.): 25 µg/mL
- MIC [8]: 1.56 µg/mL

Structure (SMILES): CC1(C)[C@H](C(=O)O)N2C(=O)C[C@H]2S1(=O)=O [Sulbactam]
- inhibition to β-lactamase [9]: extremely strong inhibition
